Test results taken from patent publication US10500209B2, “Quinazolinones as bromodomain inhibitors” (Zenith Epigenetics Ltd., priority 2013, dated 2019).

What was measured:
[1] = tested on: c-myc in MV4-11 cells; test: Inhibition of c-myc expression in cancer cell lines (mRNA, real-time PCR); assay type: cell-based, Human; design: key: Active: Compounds with an IC50 value less than 30 μM were deemed to be active.; Not Active: Compounds with an IC50 value less than 30 μM were deemed to be active; conditions: 3 h
Method: MV4-11 cells (2.5×10^4 cells) were plated in 96 well U-bottom plates with test compound or DMSO (0.1%), and incubated for 3 h at 37° C. Cells were then harvested by centrifugation, lysed, and mRNA was isolated using the mRNA catcher plus kit (Invitrogen). Reverse transcription of the mRNA and duplex amplification of the c-myc and cyclophilin cDNAs was performed using the RNA Ultrasense kit (Invitrogen) and a ViiA7 real-time PCR machine (Applied Biosystems). IC50 values were determined from a dose response curve.

[2] = tested on: hIL-6 mRNA; test: Inhibition of hIL-6 mRNA transcription in LPS-stimulated U937 macrophages; assay type: cell-based, human; design: key: Active: Compounds with an IC50 value less than 30 μM were deemed to be active.; Not Active: Compounds with an IC50 value less than 30 μM were deemed to be active; conditions: U937 cells differentiated with PMA, LPS stimulation, 3 h
Method: In this example, hIL-6 mRNA in tissue culture cells was quantitated to measure the transcriptional inhibition of hIL-6 when treated with a compound of the present disclosure.
A human leukemic monocyte lymphoma cell line (U937) was plated (3.2×10^4 cells per well) in a 96-well plate in 100 μL RPMI-1640 containing 10% FBS and penicillin/streptomycin, and differentiated into macrophages for 3 days in 60 ng/mL PMA ([…]) at 37° C. in 5% CO2 prior to the addition of the compound of interest. The cells were pretreated for 1 h with the test compound prior to stimulation with 1 ug/mL lipopolysaccharide from Escherichia coli. The cells were incubated at 37° C. for 3 h before the cells were harvested. At time of harvest, the spent media was removed from the cells and the cells were rinsed in 200 μL PBS. Cell lysis solution (70 μL) was added the cells in each well and incubated for 5-10 min at room temperature, to allow for complete cell lysis and detachment. mRNA was then prepared using the “mRNA Catcher PLUS plate” (Invitrogen), according to the protocol supplied. After the last wash, as much wash buffer as possible was aspirated without allowing the wells to dry. Elution buffer (E3, 70 μL) was then added to each well. mRNA was then eluted by incubating the mRNA Catcher PLUS plate with Elution Buffer for 5 min at 68° C. and then immediately placing the plate on ice.
The eluted mRNA isolated was then used in a one-step quantitative real-time PCR reaction, using components of the Ultra Sense Kit together with Applied Biosystems primer-probe mixes. Real-time PCR data was analyzed, normalizing the Ct values for hIL-6 to an internal control, prior to determining the fold induction of each unknown sample, relative to the control.

[3] = molecular target: T1, Brd4 bromodomain 1 (BRD4(1)) (Homo sapiens, UniProt O60885); test: Inhibition of tetra-acetylated histone H4 binding to BET bromodomains (TR-FRET); design: key: Active: Compounds with an IC50 value less than 30 μM were deemed to be active.; Not Active: Compounds with an IC50 value less than 30 μM were deemed to be active; conditions: first bromodomain of Brd4, tetra-acetylated histone H4 peptide
T1 construct: made in house; host or cells: E. coli BL21(DE3)
Method: Proteins were cloned and overexpressed with a N-terminal 6×His tag, then purified by nickel affinity followed by size exclusion chromatography. Briefly, E. coli BL21(DE3) cells were transformed with a recombinant expression vector encoding N-terminally Nickel affinity tagged bromodomains from Brd2, Brd3, Brd4. Cell cultures were incubated at 37° C. with shaking to the appropriate density and induced overnight with IPTG. The supernatant of lysed cells was loaded onto Ni-IDA column for purification. Eluted protein is pooled, concentrated and further purified by size exclusion chromatography. Fractions representing monomeric protein were pooled, concentrated, aliquoted, and frozen at −80° C. for use in subsequent experiments.
Binding of tetra-acetylated histone H4 and BET bromodomains was confirmed by a Time Resolved Fluorescence Resonance Energy Transfer (TR-FRET) method. N-terminally His-tagged bromodomains (200 nM) and biotinylated tetra-acetylated histone H4 peptide (25-50 nM, Millipore) were incubated in the presence of Europium Cryptate-labeled streptavidin (Cisbio Cat. #610SAKLB) and XL665-labeled monoclonal anti-His antibody (Cisbio Cat. #61HISXLB) in a white 96 well microtiter plate (Greiner). For inhibition assays, serially diluted test compound was added to these reactions in a 0.2% final concentration of DMSO. Final buffer concentrations were 30 mM HEPES pH 7.4, 30 mM NaCl, 0.3 mM CHAPS, 20 mM phosphate pH 7.0, 320 mM KF, 0.08% BSA). After a 2-h incubation at room temperature, the fluorescence by FRET was measured at 665 and 620 nm by a SynergyH4 plate reader (Biotek). The binding inhibitory activity was shown by a decrease in 665 nm fluorescence relative to 620 nm. IC50 values were determined from a dose response curve.

[4] = tested on: human AML MV-4-11 cells; test: Inhibition of cell proliferation in cancer cell lines (CellTiter Aqueous One); assay type: cell-based; design: key: Active: Compounds with an IC50 value less than 30 μM were deemed to be active.; Not Active: Compounds with an IC50 value less than 30 μM were deemed to be active; conditions: 72 h
Method: MV4-11 cells: 96-well plates were seeded with 5×10^4 cells per well of exponentially growing human AML MV-4-11 (CRL-9591) cells and immediately treated with two-fold dilutions of test compounds, ranging from 30 μM to 0.2 μM. Triplicate wells were used for each concentration, as well as a media only and three DMSO control wells. The cells and compounds were incubated at 37° C., 5% CO2 for 72 h before adding 20 μL of the CellTiter Aqueous One Solution (Promega) to each well and incubating at 37° C., 5% CO2 for an additional 3-4 h. The absorbance was taken at 490 nm in a spectrophotometer and the percentage of proliferation relative to DMSO-treated cells was calculated after correction from the blank well. IC50 were calculated using the GraphPad Prism software.

Row | Compound | melting point | c-myc activity (IC50 < 30 μM) [1] | IL-6 activity (IC50 < 30 μM) [2] | FRET activity BRD4(1) [3] | Cell Proliferation activity (IC50 < 30 μM) [4]
1 | COc1ccc(-c2nc3cc(OC)cc(OC)c3c(=O)[nH]2)c(NCCN2CCN(C(C)C)CC2)c1 [Example 22, 2-(2-((2-(4-Isopropylpiperazin-1-yl)ethyl)amino)-4-methoxyphenyl)-5,7-dimethoxyquinazolin-4(3H)-one] | 227 to 228 °C | Active | Active | Active | Active
2 | CCNc1cc(OC)c2c(=O)[nH]c(-c3ncccc3NC3CCN(C(C)C)CC3)nc2c1 [Example 69, 7-(Ethylamino)-2-(3-((1-isopropylpiperidin-4-yl)amino)pyridin-2-yl)-5-methoxyquinazolin-4(3H)-one] | 219 to 221 °C | Active | Active | Active | Active
3 | COc1cc(OC)c2c(=O)[nH]c(-c3ncccc3NCCNC(=O)C(C)C)nc2c1 [Example 56, N-(2-((2-(5,7-Dimethoxy-4-oxo-3,4-dihydroquinazolin-2-yl)pyridin-3-yl)amino)ethyl)isobutyramide] | 235 to 237 °C | Active | Active | Active | Active
4 | COc1ccc(-c2nc3cc(OC)cc(OC)c3c(=O)[nH]2)c(NCCCN2CCNCC2)c1 [Example 28, 5,7-Dimethoxy-2-(4-methoxy-2-[3-(piperazin-1-yl)propylamino]phenyl)quinazolin-4(3H)-one] | 225 to 228 °C | Active | Active | Active | Active
5 | COc1cc(OC)c2c(=O)[nH]c(-c3ncc(OCCO)cc3NC3CCN(C(=O)C(C)C)CC3)nc2c1 [Example 64, 2-[5-(2-Hydroxyethoxy)-3-(1-isobutyroylpiperidin-4-ylamino)pyridin-2-yl]-5,7-dimethoxyquinazolin-4(3H)-one] | 173 to 176 °C | Active | Active | Active | Active
6 | COc1ccc(NC2CCN(C(C)C)CC2)c(-c2nc3cc(OC)cc(OC)c3c(=O)[nH]2)c1 [Example 26, 2-(2-((1-Isopropylpiperidin-4-yl)amino)-5-methoxyphenyl)-5,7-dimethoxyquinazolin-4(3H)-one] | – | Active | Active | Active | Not Active
7 | COc1cnc(-c2nc3cc(OC)cc(OC)c3c(=O)[nH]2)c(N[C@H]2CC[C@@H](C(=O)NC(C)C)CC2)c1 [Example 45, cis-4-((2-(5,7-Dimethoxy-4-oxo-3,4-dihydroquinazolin-2-yl)-5-methoxypyridin-3-yl)amino)-N-isopropylcyclohexane-1-carboxamide] | – | – | Active | Active | Not Active
8 | COc1ccc(-c2nc3cc(OC)cc(OC)c3c(=O)[nH]2)c(N[C@H]2CC[C@H](C(C)(C)O)CC2)c1 [Example 31, 2-(2-((trans-4-(2-Hydroxypropan-2-yl)cyclohexyl)amino)-4-methoxyphenyl)-5,7-dimethoxyquinazolin-4(3H)-one] | 253 °C (dec.) | – | Active | Active | Not Active
9 | COc1ccc(-c2nc3cc(OC)cc(OC)c3c(=O)[nH]2)c(NC2CCN(C(C)=O)CC2)c1 [Example 39, 2-(2-((1-Acetylpiperidin-4-yl)amino)-4-methoxyphenyl)-5,7-dimethoxyquinazolin-4(3H)-one] | – | Active | Active | Active | Active

Continued, values first:

Row | melting point | c-myc activity (IC50 < 30 μM) [1] | IL-6 activity (IC50 < 30 μM) [2] | FRET activity BRD4(1) [3] | Cell Proliferation activity (IC50 < 30 μM) [4] | Compound
10 | 151 to 152 °C | Active | Active | Active | Not Active | CCNC(=O)N1CCC(Nc2cccnc2-c2nc3cc(OC)cc(OC)c3c(=O)[nH]2)CC1 [Example 52, 4-((2-(5,7-dimethoxy-4-oxo-3,4-dihydroquinazolin-2-yl)pyridin-3-yl)amino)-N-ethylpiperidine-1-carboxamide]
11 | 198 to 199 °C | – | Active | Active | Not Active | COc1cc(OC)c2c(=O)[nH]c(-c3ncccc3NC3CCN(C(=O)NC(C)C)CC3)nc2c1 [Example 47, 4-((2-(5,7-Dimethoxy-4-oxo-3,4-dihydroquinazolin-2-yl)pyridin-3-yl)amino)-N-isopropylpiperidine-1-carboxamide]
12 | 261 to 262 °C | Active | Active | Active | Active | COc1cc(OC)c2c(=O)[nH]c(-c3ncccc3NC3CCN(C(=O)C(=O)N(C)C)CC3)nc2c1 [Example 51, 2-(4-((2-(5,7-Dimethoxy-4-oxo-3,4-dihydroquinazolin-2-yl)pyridin-3-yl)amino)piperidin-1-yl)-N,N-dimethyl-2-oxoacetamide]
13 | 290 to 291 °C | Active | Active | Active | Active | COc1cc(OC)c2c(=O)[nH]c(-c3ncccc3NC3CCN(C(=O)C(C)O)CC3)nc2c1 (stereo not drawn) [Example 60, 2-(3-((1-(2-hydroxypropanoyl)piperidin-4-yl)amino)pyridin-2-yl)-5,7-dimethoxyquinazolin-4(3H)-one]
14 | – | Active | Active | Active | Active | COc1cc(OC)c2c(=O)[nH]c(-c3ncccc3NC3CCN(C(C)=O)CC3)nc2c1 [Example 37, 2-(3-((1-Acetylpiperidin-4-yl)amino)pyridine-2-yl)-5,7-dimethoxyquinazolin-4(3H)-one]
